These results are taken from ChEMBL document CHEMBL3507680, “University of Dundee, Gates Library screen for HepG2 cell viability”.

This data set is described as follows: Human HepG2 cell viability assay in 384 well format. The format is toxicity, cell-based. On the set-up: dose 125 nL, time 70.5 hour; concentration not given beside the values. The conditions noted are these: HepG2 cells, read-out: Inhibition.
For the compound `Cc1cccc(SC2CCN(Cc3nc(CC4CC4)no3)CC2)c1`, the cytotoxicity at 70.5 h was found to be 0.0623%.

Turning to `Cc1ccc(N2CCC(C3CCN(CC(C)C)CC3)C2)nn1` (stereo not drawn), the cytotoxicity at 70.5 h was -6.28%.

Turning to `CCc1cnc(N2Cc3cnc(C(C)(C)C)nc3C2)nc1`, the cytotoxicity at 70.5 h is -3.57%.

Consider `COc1ccc(-c2cc(C3CCOC3)c(C#N)c(N)n2)cn1` (stereo not drawn), for which the cytotoxicity at 70.5 h amounted to 18.9%.

Regarding `Cn1ccnc1-c1cn(CCc2nnc(N)s2)nn1`, the cytotoxicity at 70.5 h turned out to be 43.6%.

Take `CCn1c(C2CCNCC2)nn(CCn2cncn2)c1=O`: the cytotoxicity at 70.5 h was -6.69%.

`Cc1cncc(C(=O)N2CCNCC2C(=O)NCc2ccncc2)c1` (stereo not drawn): the cytotoxicity at 70.5 h was -1.53%.

Take `O=C(CNc1cc(-c2ccccc2)nc2ccnn12)NC1CC1`: the cytotoxicity at 70.5 h is -0.964%.

Consider `COc1ccc(C)cc1-n1cnnc1C1CCCN(C)C1` (stereo not drawn), for which the cytotoxicity at 70.5 h worked out at 9.2%.

Consider `CN(Cc1cccc2ncccc12)C(=O)CCn1ccc(=O)[nH]c1=O`, for which the cytotoxicity at 70.5 h is -1.13%.

For the compound `Cc1nc(N(C)C)nc(NCCc2cnccn2)c1C`, the cytotoxicity at 70.5 h is -1.68%.

As for `O=S(=O)(CC1CC1)c1ncc(CN2CCOCC2)n1CC1CCCO1` (stereo not drawn), the cytotoxicity at 70.5 h is -0.667%.

`c1cc(CN2CCCN(c3ccc4cc[nH]c4n3)CC2)ccn1`: the cytotoxicity at 70.5 h is -1.4%.

`CCCc1nnc(N(C)CC2CCCN(CC)C2)o1` (stereo not drawn): the cytotoxicity at 70.5 h came out at 15.4%.

Consider `Cc1c(C2c3nc[nH]c3CCN2CCOCc2ccccc2)cnn1C` (stereo not drawn), for which the cytotoxicity at 70.5 h was -10.4%.

As for `CCN(Cc1c(F)cccc1Cl)c1cc(C2CCNCC2)nc(C)n1`, the cytotoxicity at 70.5 h turned out to be 2.62%.

On to `CCCc1ccc(CN2CCN(C(=O)N(C)C)[C@@H]3CS(=O)(=O)C[C@@H]32)o1`, for which the cytotoxicity at 70.5 h was -10.7%.

For the compound `CCc1ccc2ncn(Cc3ncc[nH]3)c(=O)c2c1`, the cytotoxicity at 70.5 h was -18.6%.

Turning to `CC(C)Cc1ncc2c(n1)CN(C(=O)Cn1c(=O)oc3ccccc31)C2`, the cytotoxicity at 70.5 h was -14.5%.

With `CC(Cn1ccnc1)NCc1ccc2nonc2c1` (stereo not drawn), the cytotoxicity at 70.5 h was -2.31%.

In the case of `CCc1ncc2c(n1)CN(c1cc(N3CCN(C)CC3)nc(N)n1)C2`, the cytotoxicity at 70.5 h was determined as 25%.

For the compound `Cc1cccc2[nH]c(C3CCN(C(=O)c4ccc[nH]4)CC3)nc12`, the cytotoxicity at 70.5 h was -6.62%.

With `Cc1nc(CNCc2cccnc2Oc2ccc(C)c(F)c2F)c[nH]1`, the cytotoxicity at 70.5 h stood at 0.762%.

Turning to `CN(CCN1CCCCCC1)C(=O)c1cc(CN2CCCC(O)C2)on1` (stereo not drawn), the cytotoxicity at 70.5 h is -10.1%.

As for `COCCN(C/C=C/c1ccccc1)Cc1ncc[nH]1`, the cytotoxicity at 70.5 h was -5.41%.

For `c1ccc(Cc2noc(-c3ccc(NCC4CCCOC4)nc3)n2)cc1` (stereo not drawn), the cytotoxicity at 70.5 h was -2.44%.

Consider `COc1ccc2c(C)c(C(=O)NCCCc3csc(N)n3)oc2c1`, for which the cytotoxicity at 70.5 h was determined as 8.41%.

For `CC(=O)N1CCCn2nc(CNS(=O)(=O)N3CCC(C)CC3)cc2C1`, the cytotoxicity at 70.5 h is -11.6%.

As for `CCn1nc(C)c(NC(=O)CN2CC[C@@H](F)C2)c1C`, the cytotoxicity at 70.5 h is -4.28%.

On to `NC(=O)NCC(=O)N1C[C@H]2CC[C@@H]1CN(Cc1cscn1)C2`, for which the cytotoxicity at 70.5 h turned out to be 9.8%.

As for `O=C(N[C@@H]1CCN(C(=O)c2ccc(F)cc2Cl)C[C@H]1O)c1ccccn1`, the cytotoxicity at 70.5 h is -6.49%.

Turning to `Cc1nn2cc(CNc3nccc(CCC(F)(F)F)n3)nc2s1`, the cytotoxicity at 70.5 h is -9.54%.

`COCc1cc(CNC(=O)c2c(C)c(C)cc(C)c2C)n[nH]1`: the cytotoxicity at 70.5 h was -4.32%.

As for `CCOc1cccc(C(=O)N2CCCn3nc(CCC(=O)O)cc3C2)c1`, the cytotoxicity at 70.5 h was -5.68%.

Take `COc1ccc(CN2CCCC3(CC2)CNC(=O)O3)cc1OC` (stereo not drawn): the cytotoxicity at 70.5 h was determined as 12.1%.

Turning to `Cc1ccccc1-n1cc(C2=CCN(CCN3CCOCC3)CC2)cn1`, the cytotoxicity at 70.5 h was found to be 12.8%.

With `COc1cccc(-c2noc(-c3ccc(NCC(C)C)nc3)n2)c1OC`, the cytotoxicity at 70.5 h is -2.74%.

On to `COCCc1noc(CN2CCC(c3ccccc3C(=O)O)C2)n1` (stereo not drawn), for which the cytotoxicity at 70.5 h was -20.1%.

For the compound `Cc1nc2c(c(NCC3Cc4ccccc4CN3C)n1)CCNCC2` (stereo not drawn), the cytotoxicity at 70.5 h is -8.03%.

As to `Cc1nc(C(=O)N(Cc2c(C)nn(C)c2C)C(C)C)cs1`, the cytotoxicity at 70.5 h is -0.883%.

Consider `CC(C)c1noc(C2CCCN2S(=O)(=O)N2CCCCCC2)n1` (stereo not drawn), for which the cytotoxicity at 70.5 h was -6.79%.

`Cc1nccc(NCc2cc3n(n2)CCCN(S(C)(=O)=O)C3)n1`: the cytotoxicity at 70.5 h is -3.08%.

Take `CN(Cc1noc2c1CCCC2)C(=O)Nc1cccc(S(N)(=O)=O)c1`: the cytotoxicity at 70.5 h is 17.1%.

As to `COc1ccc(-n2nc(C(C)C)nc2COC(C)C)cc1`, the cytotoxicity at 70.5 h is 20.2%.

For `CCn1c(C)nnc1SCCn1cc(-c2ncc[nH]2)nn1`, the cytotoxicity at 70.5 h was -5.72%.

As to `O=C(O)c1ccnc(-c2ccnc(N3CCC4(CCO4)CC3)n2)c1`, the cytotoxicity at 70.5 h is -11.6%.

For the compound `Cc1cccc(N2CCC(N3CCCC4(CNC(=O)O4)C3)CC2)c1C` (stereo not drawn), the cytotoxicity at 70.5 h is -7.33%.

Take `CCCn1ccnc1CN1CCCC(CC)(CO)C1` (stereo not drawn): the cytotoxicity at 70.5 h worked out at 26.9%.

As for `COCCC1(CO)CCCN(C(=O)CCC(F)(F)F)C1` (stereo not drawn), the cytotoxicity at 70.5 h is -10.8%.

Take `c1ccc(NCCn2cc(C3CCCNC3)nn2)cc1` (stereo not drawn): the cytotoxicity at 70.5 h was -3.12%.

`N#CC1(C(=O)N2C[C@H](Nc3ccnc(N)n3)[C@@H](C3CC3)C2)CCOCC1`: the cytotoxicity at 70.5 h was -3.81%.

Turning to `CC(C)C1CN(C(=O)c2csc(CN(C)C)n2)CCC(=O)N1CC1CC1` (stereo not drawn), the cytotoxicity at 70.5 h is -10.8%.

Consider `Cc1nc(C(C)C)sc1C(=O)N(C)CCCc1cnn(C)c1`, for which the cytotoxicity at 70.5 h was -7.28%.

Turning to `Cc1ncc2c(c1CNC(=O)C1(C)CCCO1)CCNC2` (stereo not drawn), the cytotoxicity at 70.5 h was -7.21%.

For `CCCc1nc(N2CCCN3CCC[C@H]3C2)c2cnn(C)c2n1`, the cytotoxicity at 70.5 h worked out at 15.2%.

In the case of `COC(=O)CCNC(=O)c1coc(COc2ccc(F)cc2)n1`, the cytotoxicity at 70.5 h is -5.99%.

With `NC1(C(=O)NCC2CCCN(Cc3ccccc3F)C2)CCCC1` (stereo not drawn), the cytotoxicity at 70.5 h was -1.04%.

Regarding `CCn1nc(C)c(C(=O)N2C[C@@H](CN(C)C)[C@@H](CO)C2)c1C`, the cytotoxicity at 70.5 h was 0.473%.

`CC1(Cc2ccc3c(c2)OCO3)CCCN(S(=O)(=O)N2CCOCC2)C1` (stereo not drawn): the cytotoxicity at 70.5 h was -6.32%.

Turning to `O=S(=O)(NCc1ccccc1)NCc1nc(-c2ccncc2)n[nH]1`, the cytotoxicity at 70.5 h was -5.68%.

Consider `COCc1cc(CNC(=O)c2cc(NC(C)=O)ccc2Cl)n[nH]1`, for which the cytotoxicity at 70.5 h is -6.43%.

As to `COC(=O)CCC(=O)N(C/C=C/c1ccccc1)CCO`, the cytotoxicity at 70.5 h came to 23.1%.

`Cc1nc(N2CCCC(OCc3ccccn3)C2)c2c(C)noc2n1` (stereo not drawn): the cytotoxicity at 70.5 h is -9.19%.

As for `FC(F)Oc1ccccc1CN1CCCC(c2nccn2CC2CC2)C1` (stereo not drawn), the cytotoxicity at 70.5 h is -1.02%.

With `CCNc1ccnc(NC2CCN(CC(N)=O)CC2)n1`, the cytotoxicity at 70.5 h came out at 14%.

In the case of `COc1coc(CN2CCCC3(CCC(=O)N(CC4CC4)C3)C2)cc1=O` (stereo not drawn), the cytotoxicity at 70.5 h was -8.43%.

For `Cc1nsc(NC(=O)NC2(CN3CCOCC3)CCCCC2)n1`, the cytotoxicity at 70.5 h amounted to 1.42%.

As for `OC1CCN(CCCn2ccnc2-c2c[nH]cn2)CC1`, the cytotoxicity at 70.5 h is -5.95%.

In the case of `CC(C)(O)CCc1ccc(C(=O)N2CCN(CC(F)(F)F)CC2)cc1`, the cytotoxicity at 70.5 h is 3.68%.

As to `Cc1nc(-c2cccc(N3CCC(N4CCCC(C#N)C4)CC3)c2)cs1` (stereo not drawn), the cytotoxicity at 70.5 h turned out to be 22.1%.

Consider `Cc1cnc(C)c(N2CC[C@H](N3CCOCC3)[C@H](CCCO)C2)n1`, for which the cytotoxicity at 70.5 h is -9.88%.

As to `Cc1cccnc1N1CCN(C(=O)C(C)n2ccnc2C(C)C)CC1` (stereo not drawn), the cytotoxicity at 70.5 h is -2.78%.

Turning to `O=C1NCC2(CCCN(C(=O)CCn3cnc4ccccc43)CC2)O1` (stereo not drawn), the cytotoxicity at 70.5 h was -1.01%.

Turning to `Cc1ncccc1OC1(C(=O)NCCc2ccccn2)CCNCC1`, the cytotoxicity at 70.5 h stood at 13.7%.

In the case of `N[C@H]1CN(CCOc2ccc(F)cc2)C[C@@H]1C1CC1`, the cytotoxicity at 70.5 h is 14.7%.

For `Cc1ccccc1-c1noc(-c2ccc(N(C)C3CCOCC3)nc2)n1`, the cytotoxicity at 70.5 h was -2.11%.

Take `CCc1nccn1CCC(=O)N1CCOC(c2ccc(F)cc2)C1` (stereo not drawn): the cytotoxicity at 70.5 h was -6.46%.

Take `CCCn1cc(C(=O)NCC(=O)NC2CC2)c(C)n1`: the cytotoxicity at 70.5 h was -0.483%.

For the compound `Cc1ccc(-n2cc(CN3CCN(C)[C@@H]4CS(=O)(=O)C[C@@H]43)cn2)cc1`, the cytotoxicity at 70.5 h was -5.8%.

As to `Cc1nc(C2CCN(C)CC2)cc(N2CCOc3ccc(Cl)cc3C2)n1`, the cytotoxicity at 70.5 h was found to be 32.5%.

On to `CN(Cc1ccc(C2CC(=O)Nc3cc4[nH]ncc4cc32)o1)S(C)(=O)=O` (stereo not drawn), for which the cytotoxicity at 70.5 h is -0.109%.

For `CC(C)CN1CCCC1c1ccc(C(=O)Nc2cc[nH]n2)s1` (stereo not drawn), the cytotoxicity at 70.5 h is -0.844%.

As for `CCCc1cnc(C)nc1N1CCC(Cn2cc(CN(C)C)nn2)CC1`, the cytotoxicity at 70.5 h is -6.13%.

Turning to `Cc1nc(CCNC(=O)C2CCN(C(C)C)CC2)sc1Cl`, the cytotoxicity at 70.5 h was -0.288%.

For the compound `Cc1cc(CN2CCC(C(=O)O)(n3ccc(-c4ccco4)n3)CC2)on1`, the cytotoxicity at 70.5 h was -2.92%.

Turning to `Cc1cc(C)n(CC(C)NC(=O)c2cc(CN3CCC(O)CC3)on2)n1` (stereo not drawn), the cytotoxicity at 70.5 h was -9.49%.

As to `COc1cccc(CCC2CCCN(C(C)=O)C2)c1` (stereo not drawn), the cytotoxicity at 70.5 h was -1.99%.

Regarding `COc1ccccc1CNC(=O)CN(C)C(C)c1ccncn1` (stereo not drawn), the cytotoxicity at 70.5 h is -18.5%.

`Cc1ccc(CN2CCC(Cc3nnc(CO)n3C)CC2)cc1C`: the cytotoxicity at 70.5 h came to 3.69%.

As for `O=c1c2cccc(F)c2ncn1CCN1CCOCC1`, the cytotoxicity at 70.5 h was -3.65%.

Regarding `CN1CC2(CCN(C(=O)Cc3ccc(O)c(F)c3)CC2)CC1=O`, the cytotoxicity at 70.5 h was 10.1%.

Take `O=C(NCc1ccoc1)c1ccc(C2CCCN2CC2CCOCC2)s1` (stereo not drawn): the cytotoxicity at 70.5 h was 38.9%.

For the compound `Cc1nc(C(C)NC(=O)c2cn(C/C=C/c3ccccc3)nn2)n[nH]1` (stereo not drawn), the cytotoxicity at 70.5 h is -13.1%.

For `COCc1ccc(C(=O)N2CCN(CC3CC3)[C@@H]3CS(=O)(=O)C[C@@H]32)o1`, the cytotoxicity at 70.5 h was -1.28%.

Consider `CN(C)S(=O)(=O)NCc1cccnc1Oc1ccccc1F`, for which the cytotoxicity at 70.5 h was 1.78%.

Turning to `Cc1ccc(C(=O)N2C[C@@H](NS(C)(=O)=O)[C@H](C(C)C)C2)cc1O`, the cytotoxicity at 70.5 h stood at 1.71%.

Regarding `COCCN(CC(N)=O)CC1CCCN(C2Cc3ccccc3C2)C1` (stereo not drawn), the cytotoxicity at 70.5 h was 7.41%.

With `O=C(C1CCCO1)N1CCC(n2cc(-c3ccc(F)cc3)nn2)CC1` (stereo not drawn), the cytotoxicity at 70.5 h was 0.724%.
